# From US9981916B2 (Genentech, Inc., priority 2013, dated 2018)
# Target: T1, RORc ligand binding domain (Homo sapiens, UniProt P51449)
# T1 construct: host or cells: E. coli
# T1 sequence (P51449 269-508 limits assumed): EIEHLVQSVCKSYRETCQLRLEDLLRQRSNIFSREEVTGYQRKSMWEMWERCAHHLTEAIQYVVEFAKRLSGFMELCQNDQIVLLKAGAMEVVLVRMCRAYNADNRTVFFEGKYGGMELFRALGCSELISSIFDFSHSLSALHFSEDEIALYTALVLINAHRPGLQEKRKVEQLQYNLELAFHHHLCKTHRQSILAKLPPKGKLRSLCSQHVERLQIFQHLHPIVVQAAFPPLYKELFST
# Experiment: In vitro RORc ligand binding assay (25-[3H]hydroxycholesterol displacement, filter binding)
# Details: 6 nM 25-[3H]hydroxycholesterol, 0.6 ug/mL RORc receptor, 3 h at 25° C.
# Procedure, shortened: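 Filter-binding displacement of 6 nM 25-[3H]hydroxycholesterol from RORc receptor (0.6 ug/mL) in 50 mM HEPES pH 7.4, 150 mM NaCl, 5 mM MgCl2, 1 mM DTT, 0.01% BSA, 5% DMSO; 3 h at 25° C. NSB defined with 1 uM 25-hydroxycholesterol; scintillation counting gave Kiapp, IC50 or % inhibition (screening at 1 and 10 uM).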
row,Compound,IC50 [nM]
1,"CC1(C)[C@H]2CC[C@]1(Cn1ccccc1=O)c1nnc(-c3c(F)cccc3F)cc12 [Example 121, 1-{[(5R,8S)-3-(2,6-difluorophenyl)-9,9-dimethyl-6,7-dihydro-5,8-methanocinnolin-8(5H)-yl]methyl}pyridin-2(1H)-one]",199
2,"CCc1nnc([C@@]23CC[C@@H](c4cc(-c5c(F)cccc5F)nnc42)C3(C)C)o1 [Example 122, (5R,8R)-3-(2,6-difluorophenyl)-9,9-dimethyl-8-(5-ethyl-1,3,4-oxadiazol-2-yl)-5,6,7,8-tetrahydro-5,8-methanocinnoline]",17
3,"CC1(C)[C@H]2CC[C@]1(c1nnc(C3CC3)o1)c1nnc(-c3c(F)cccc3F)cc12 [Example 123, (5R,8R)-3-(2,6-difluorophenyl)-9,9-dimethyl-8-(5-cyclopropyl-1,3,4-oxadiazol-2-yl)-5,6,7,8-tetrahydro-5,8-methanocinnoline]",109
4,"CCc1nnc([C@@]23CC[C@@H](c4cc(-c5c(F)cccc5F)nnc42)C3(C)C)s1 [Example 124, (5R,8R)-3-(2,6-difluorophenyl)-9,9-dimethyl-8-(5-ethyl-1,3,4-thiadiazol-2-yl)-5,6,7,8-tetrahydro-5,8-methanocinnoline]",117
5,"CC(C)c1nnc([C@@]23CC[C@@H](c4cc(-c5c(F)cccc5F)nnc42)C3(C)C)o1 [Example 125, (5R,8R)-3-(2,6-difluorophenyl)-9,9-dimethyl-8-(5-isopropyl-1,3,4-oxadiazol-2-yl)-5,6,7,8-tetrahydro-5,8-methanocinnoline]",811
6,"CC1(C)[C@H]2C=C[C@]1(C)c1nnc(-c3c(F)cccc3F)cc12 [Example 126, (5R,8S)-3-(2,6-difluorophenyl)-8,9,9-trimethyl-5,8-dihydro-5,8-methanocinnoline]",340
7,"CC1(C)[C@H]2C(=O)C[C@]1(C)c1nnc(-c3ccccc3F)cc12 [Example 127, (5R,8S)-3-(2-fluorophenyl)-8,9,9-trimethyl-7,8-dihydro-5,8-methanocinnolin-6(5H)-one]",1700
8,"CC1(C)[C@@H]2CC[C@@]1(C(=O)Nc1ccc(C#N)cn1)c1nnc(-c3ccccc3F)cc12 [Example 128, (5S,8S)-N-(5-cyanopyridin-2-yl)-3-(2-fluorophenyl)-9,9-dimethyl-5,6,7,8-tetrahydro-5,8-methanocinnoline-8-carboxamide]",848
9,"CC1(C)[C@@H]2CC[C@@]1(C(=O)Nc1ccccc1S(C)(=O)=O)c1nnc(-c3ccccc3F)cc12 [Example 129, (5S,8S)-3-(2-fluorophenyl)-9,9-dimethyl-N-(2-(methylsulfonyl)phenyl)-5,6,7,8-tetrahydro-5,8-methanocinnoline-8-carboxamide]",1790
10,"CC1(C)[C@@H]2CC[C@@]1(C(=O)NCC(F)F)c1nnc(-c3ccccc3F)cc12 [Example 130, (5S,8S)-N-(2,2-difluoroethyl)-3-(2-fluorophenyl)-9,9-dimethyl-5,6,7,8-tetrahydro-5,8-methanocinnoline-8-carboxamide]",1120
11,"CC(C)CNC(=O)[C@]12CC[C@H](c3cc(-c4ccccc4F)nnc31)C2(C)C [Example 131, (5S,8S)-3-(2-fluorophenyl)-N-isobutyl-9,9-dimethyl-5,6,7,8-tetrahydro-5,8-methanocinnoline-8-carboxamide]",1330
12,"CC1(C)[C@@H]2CC[C@@]1(C(=O)NCC1CC1)c1nnc(-c3ccccc3F)cc12 [Example 132, (5S,8S)-N-(cyclopropylmethyl)-3-(2-fluorophenyl)-9,9-dimethyl-5,6,7,8-tetrahydro-5,8-methanocinnoline-8-carboxamide]",707
13,"CC1(C)[C@@H]2CC[C@@]1(C(=O)NCc1ccc(F)cc1)c1nnc(-c3ccccc3F)cc12 [Example 133, (5S,8S)-N-(4-fluorobenzyl)-3-(2-fluorophenyl)-9,9-dimethyl-5,6,7,8-tetrahydro-5,8-methanocinnoline-8-carboxamide]",876
14,"CCNC(=O)[C@]12CC[C@H](c3cc(-c4ccccc4F)nnc31)C2(C)C [Example 134, (5S,8S)-N-ethyl-3-(2-fluorophenyl)-9,9-dimethyl-5,6,7,8-tetrahydro-5,8-methanocinnoline-8-carboxamide]",211
15,"CC1(C)[C@H]2CC[C@]1(C(=O)N1CC(F)(F)C1)c1nnc(-c3c(F)cccc3F)cc12 [Example 135, (3,3-difluoroazetidin-1-yl)((5R,8R)-3-(2,6-difluorophenyl)-9,9-dimethyl-5,6,7,8-tetrahydro-5,8-methanocinnolin-8-yl)methanone]",643
16,"COC(=O)C1CN(C(=O)[C@@]23CC[C@@H](c4cc(-c5c(F)cccc5F)nnc42)C3(C)C)C1 [Example 136, methyl 1-((5R,8R)-3-(2,6-difluorophenyl)-9,9-dimethyl-5,6,7,8-tetrahydro-5,8-methanocinnoline-8-carbonyl)azetidine-3-carboxylate]",524
17,"COCC1CN(C(=O)[C@@]23CC[C@@H](c4cc(-c5c(F)cccc5F)nnc42)C3(C)C)C1 [Example 137, ((5R,8R)-3-(2,6-difluorophenyl)-9,9-dimethyl-5,6,7,8-tetrahydro-5,8-methanocinnolin-8-yl)(3-(methoxymethyl)azetidin-1-yl)methanone]",182
18,"CC1(C)[C@H]2CC[C@]1(c1nnc(C(F)F)o1)c1nnc(-c3c(F)cccc3F)cc12 [Example 138, 2-(difluoromethyl)-5-((5R,8R)-3-(2,6-difluorophenyl)-9,9-dimethyl-5,6,7,8-tetrahydro-5,8-methanocinnolin-8-yl)-1,3,4-oxadiazole]",170
19,"CC1(C)[C@@H]2CC[C@@]1(C(=O)N1CC(F)(F)C1)c1nnc(-c3c(F)cccc3F)cc12 [Example 139, (3,3-difluoroazetidin-1-yl)((5S,8S)-3-(2,6-difluorophenyl)-9,9-dimethyl-5,6,7,8-tetrahydro-5,8-methanocinnolin-8-yl)methanone]",30
20,"COCC1CN(C(=O)[C@]23CC[C@H](c4cc(-c5c(F)cccc5F)nnc42)C3(C)C)C1 [Example 140, ((5S,8S)-3-(2,6-difluorophenyl)-9,9-dimethyl-5,6,7,8-tetrahydro-5,8-methanocinnolin-8-yl)(3-(methoxymethyl)azetidin-1-yl)methanone]",19
21,"CC1(C)[C@H]2CC[C@]1(C(=O)N1CCC1)c1nnc(-c3c(F)cccc3F)cc12 [Example 141, azetidin-1-yl((5R,8R)-3-(2,6-difluorophenyl)-9,9-dimethyl-5,6,7,8-tetrahydro-5,8-methanocinnolin-8-yl)methanone]",608
22,"CC1(C)CN(C(=O)[C@@]23CC[C@@H](c4cc(-c5c(F)cccc5F)nnc42)C3(C)C)C1 [Example 142, ((5R,8R)-3-(2,6-difluorophenyl)-9,9-dimethyl-5,6,7,8-tetrahydro-5,8-methanocinnolin-8-yl)(3,3-dimethylazetidin-1-yl)methanone]",1420
23,"Cc1nnc(OC[C@@]23CC[C@@H](c4cc(-c5c(F)cccc5F)nnc42)C3(C)C)o1 [Example 143, 2-(((5R,8R)-3-(2,6-difluorophenyl)-9,9-dimethyl-5,6,7,8-tetrahydro-5,8-methanocinnolin-8-yl)methoxy)-5-methyl-1,3,4-oxadiazole]",286
24,"Cc1nnc(NC[C@@]23CC[C@@H](c4cc(-c5c(F)cccc5F)nnc42)C3(C)C)o1 [Example 144, N-(((5R,8S)-3-(2,6-difluorophenyl)-9,9-dimethyl-5,6,7,8-tetrahydro-5,8-methanocinnolin-8-yl)methyl)-5-methyl-1,3,4-oxadiazol-2-amine]",1370
25,"CC1(C)[C@H]2CC[C@]1(CO)c1nnc(Oc3c(F)cccc3F)cc12 [Example 145, ((5R,8R)-3-(2,6-difluorophenoxy)-9,9-dimethyl-5,6,7,8-tetrahydro-5,8-methanocinnolin-8-yl)methanol]",2000
26,"Cc1nnc(N(C)C[C@@]23CC[C@@H](c4cc(-c5c(F)cccc5F)nnc42)C3(C)C)o1 [Example 146, N-(((5R,8S)-3-(2,6-difluorophenyl)-9,9-dimethyl-5,6,7,8-tetrahydro-5,8-methanocinnolin-8-yl)methyl)-N,5-dimethyl-1,3,4-oxadiazol-2-amine]",11
27,"CC1(C)[C@H]2CC[C@]1(C(=O)N1CC3CC3C1)c1nnc(-c3c(F)cccc3F)cc12 (stereo partly drawn) [Example 147, 3-azabicyclo[3.1.0]hexan-3-yl((5R,8R)-3-(2,6-difluorophenyl)-9,9-dimethyl-5,6,7,8-tetrahydro-5,8-methanocinnolin-8-yl)methanone]",8
28,"CCN(C[C@@]12CC[C@@H](c3cc(-c4c(F)cccc4F)nnc31)C2(C)C)c1nnc(C)o1 [Example 148, N-(((5R,8S)-3-(2,6-difluorophenyl)-9,9-dimethyl-5,6,7,8-tetrahydro-5,8-methanocinnolin-8-yl)methyl)-N-ethyl-5-methyl-1,3,4-oxadiazol-2-amine]",19
29,"COCCN(C[C@@]12CC[C@@H](c3cc(-c4c(F)cccc4F)nnc31)C2(C)C)c1nnc(C)o1 [Example 149, N-(((5R,8S)-3-(2,6-difluorophenyl)-9,9-dimethyl-5,6,7,8-tetrahydro-5,8-methanocinnolin-8-yl)methyl)-N-(2-methoxyethyl)-5-methyl-1,3,4-oxadiazol-2-amine]",54
30,"Cc1nnc(N(C[C@@]23CC[C@@H](c4cc(-c5c(F)cccc5F)nnc42)C3(C)C)C(C)C)o1 [Example 152, N-(((5R,8S)-3-(2,6-difluorophenyl)-9,9-dimethyl-5,6,7,8-tetrahydro-5,8-methanocinnolin-8-yl)methyl)-N-isopropyl-5-methyl-1,3,4-oxadiazol-2-amine]",19
